Experimental data as given in US20080064722A1, “AGENT FOR PROMOTING INTERFERON-Y PRODUCTION” (KABUSHIKI KAISHA HAYAHIBARA SEIBUTSU KAGAKU KENKYU, priority 2001, published 2008).

What was measured:
mice = test: Observation of the mice administered with the cyanine dye (death, condition, side effects); assay type: in vivo
Procedure: (§1) Twenty-five of 10-week-old BALB/c female mice were divided into five groups. A powder consisting of one part by weight of “NK-4”, a cyanine dye represented by Chemical Formula 1 produced by Hayashibara Biochemical Laboratories, Inc., Okayama, Japan, and 200 parts by weight of sodium bicarbonate was prepared. Then, the mixture was dissolved in physiological saline to give a concentration of 20 mg/ml. Successively, the solution was diluted to give different concentrations as indicated in Table 1 with 20 mg/ml of sodium bicarbonate aqueous solution for administration to the mice. The dilutions were orally administered to the mice in four groups once a day over three days.

[1] = tested on: IFN-γ production by immunocompetent cells (spleen cells); test: Effect of cyanine dye on IFN-γ production (ex vivo: oral dosing of mice, spleen cells cultured with lipopolysaccharide, ELISA); assay type: in vivo, BALB/c female mice; conditions: for IFN-γ Production: once a day over three days, spleen cells 1×10^6 cells/ml, 5 μg/ml lipopolysaccharide, 72 hours
Procedure: The following explains the effect of the cyanine dyes on INF-γ production by immunocompetent cells based on ex vivo experiment using mice as an experimental animal.
as §1
Spleens were respectively extracted from the mice in each group, minced and suspended in a usual manner in the art to give the spleen cell suspension. The cell suspensions were collected and diluted in RPMI medium (pH 7.2), supplemented with 10% (v/v) calf serum […] and containing 10 mM HEPES (N-2-hydroxyethylpiperadine-N′-2-ethanesulfonic acid) and 5 μg/ml lipopolysaccharide, to give a concentration of 1×10^6 cells/ml, and were cultured at 37° C. for 72 hours. IFN-γ was measured by conventional enzyme-linked immunosorbent assay (ELISA). As a control, the mice of the group with no cyanine dye were treated similarly as above. The measured values of IFN-γ were converted into international units (IU) with reference to the standard mouse IFN-γ (Gg02-901-533) obtained form National institute of Health, U.S.A., as an IFN-γ standard.

LD50 of the cyanine dye = assay type: in vivo

Row | Structure (SMILES) | Serious side effect such as symptom of poisoning (mice; directly applied to living bodies) | Condition of mice (hair complexion, appetite, motility) (mice; mouse, in vivo, po) | Death of mice (mice; oral, 1 to 1,000 μg/kg body weight, once a day over three days) | IFN-γ Production ([1]; dose 1 μg/kg body weight) [IU/ml] | IFN-γ Production ([1]; dose 10 μg/kg body weight) [IU/ml] | IFN-γ Production ([1]; dose 100 μg/kg body weight) [IU/ml] | IFN-γ production relative to that of the control group ([1]; dose 1,000 μg/kg body weight, control 0.4 IU/ml) | IFN-γ Production ([1]; dose 1,000 μg/kg body weight) [IU/ml] | LD50 (LD50 of the cyanine dye; intraperitoneal administration) [mg/kg body weight] | LD50 (LD50 of the cyanine dye; oral administration) [g/kg body weight]
1 | CCN1C=CC(=CC=C(C=Cc2cc[n+](CC)c3ccccc23)c2cc[n+](CC)c3ccccc23)c2ccccc21 [NK-4] | did not cause any serious side effect | good conditions of hair complexion, appetite, and motility | did not die | 1.2 | 2.2 | 2.3 | sevenfold | 2.8 | – | –
2 | CCCCCCCN1C(C)=CS\C1=C/C=C(/C=C/c1scc(C)[n+]1CCCCCCC)c1scc(C)[n+]1CCCCCCC [Chemical Formula 2] | – | – | – | – | – | – | – | – | 54 | 1.5
